Results from patent publication US7632829B2, “Diazepan derivatives” (Hoffmann-La Roche Inc., priority 2006, dated 2009).
pIC50: −log10 of the molar value.

Molecular target: T1, human chemokine receptor 2 isoform B (Homo sapiens, UniProt P41597)
T1 construct: host or cells: CHOK1-CCR2B-A5 (CHO-K1)
T1 sequence (P41597 1-360 isoform P41597-2): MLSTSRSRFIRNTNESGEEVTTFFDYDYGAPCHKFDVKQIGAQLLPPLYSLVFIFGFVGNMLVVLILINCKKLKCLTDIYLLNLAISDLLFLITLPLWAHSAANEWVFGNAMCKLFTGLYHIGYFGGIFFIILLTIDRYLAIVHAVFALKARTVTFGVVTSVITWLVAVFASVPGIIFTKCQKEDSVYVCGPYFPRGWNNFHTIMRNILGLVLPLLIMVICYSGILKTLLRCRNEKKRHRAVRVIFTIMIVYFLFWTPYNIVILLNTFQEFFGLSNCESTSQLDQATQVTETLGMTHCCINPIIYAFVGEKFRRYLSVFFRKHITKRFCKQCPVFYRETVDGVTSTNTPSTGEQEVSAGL
Assay: Calcium mobilization assay (FLIPR, CHOK1-CCR2B-A5 cells, 20 nM MCP-1)
Format: cell-based
Details: Ca mobilisation assay, CCR2, antagonist activity vs 20 nM MCP-1
Method: CHOK1-CCR2B-A5 cells (from Euroscreen) stably overexpressing the human chemokine receptor 2 isoform B were cultured in Nutrient Hams F12 medium supplemented with 5% FBS, 100 U/ml penicillin, 100 μg/ml streptomycin, 400 μg/ml G418 and 5 μg/ml puromycin.
For the assay cells were grown overnight in 384-well black clear flat bottom polystyrene plates (Costar) at 37° C. at 5% CO2. After washing with DMEM, 20 mM Hepes, 2.5 mM probenecid, 0.1% BSA (DMEM assay buffer) cells were loaded with 4 μM Fluo-4 in the same DMEM assay buffer for 2 hours at 30° C. Excess dye was removed and cells were washed with DMEM assay buffer. 384-well compound plates were prepared with DMEM assay buffer/0.5% DMSO with or without various concentrations of test compounds. Usually compounds were tested for agonist and antagonist activity.
Test compounds were added to the assay plate and agonist activity was monitored as fluorescence for 80 seconds with a FLIPR (488 nm excitation; 510-570 nm emission; Molecular Devices). After 20-30 min. of incubation at 30° C., 20 nM MCP-1 (R&D; Roche) was added and fluorescence was monitored again for 80 seconds. Increases in intracellular calcium are reported as maximum fluorescence after agonist exposure minus basal fluorescence before exposure. Antagonist activity is indicated as inhibitor concentration required for 50% inhibition of specific calcium increases.

Row | Compound | pIC50
1 | O=C(O)C(CN1CCCCC1)CN1CCN(C(=O)/C=C/c2ccc(Cl)c(Cl)c2)CCC1=O (racemic) [Example 183, Lithium; (rac)-3-{4-[(E)-3-(3,4-dichloro-phenyl)-acryloyl]-7-oxo-[1,4]diazepan-1-yl}-2-piperidin-1-ylmethyl-propionate] | 5.91
2 | CC1CN(C(=O)/C=C/c2ccc(Cl)c(Cl)c2)CCN(CCCN2CCCCC2)C1=O (racemic) [Example 187, (rac)-1-[(E)-3-(3,4-Dichloro-phenyl)-acryloyl]-6-methyl-4-(3-piperidin-1-yl-propyl)-[1,4]diazepan-5-one] | 6.41
3 | CC1(O)CCCN(CCCN2CCN(C(=O)/C=C/c3ccc(F)c(Cl)c3)CCC2=O)C1 (racemic) [Example 205] | 6.49
4 | O=C(/C=C/c1ccc(F)c(Cl)c1)N1CCC(=O)N(CCCN2CCCCC2CO)CC1 (racemic) [Example 210] | 5.94
5 | O=C(/C=C/c1ccc(F)c(Cl)c1)N1CCC(=O)N(CCCN2CCCC(CO)C2)CC1 (racemic) [Example 211] | 6.44
6 | O=C(/C=C/c1ccc(F)c(Cl)c1)N1CCC(=O)N(CCCN2CC[C@H](CO)[C@H](O)C2)CC1 (racemic) [Example 215] | 6.45
7 | COC[C@H]1CCN(CCCN2CCN(C(=O)/C=C/c3ccc(F)c(Cl)c3)CCC2=O)C[C@H]1O (racemic) [Example 216] | 6.14
8 | C[C@]1(CO)CCN(CCCN2CCN(C(=O)/C=C/c3ccc(F)c(Cl)c3)CCC2=O)C[C@H]1O (racemic) [Example 219] | 7.35
9 | C[C@@]1(CO)CCN(CCCN2CCN(C(=O)/C=C/c3ccc(F)c(Cl)c3)CCC2=O)C[C@H]1O (racemic) [Example 220] | 6.77
10 | CC1(C)CCN(CCCN2CCN(C(=O)/C=C/c3ccc(F)c(Cl)c3)CCC2=O)CC1O (racemic) [Example 223] | 7.89
11 | C[C@@H]1[C@H](O)CCCN1CCCN1CCN(C(=O)/C=C/c2ccc(Cl)c(Cl)c2)CCC1=O (racemic) [Example 226, (rac,cis)-1-[(E)-3-(3,4-Dichloro-phenyl)-acryloyl]-4-[3-(3-hydroxy-2-methyl-piperidin-1-yl)-propyl]-[1,4]diazepan-5-one] | 6.33
12 | O=C(/C=C/c1ccc(Cl)c(Cl)c1)N1CCC(=O)N(CCCN2CCCCC2CO)CC1 (racemic) [Example 227] | 6.39
13 | O=C(/C=C/c1ccc(Cl)c(Cl)c1)N1CCC(=O)N(CCCN2CCCC(CO)C2)CC1 (racemic) [Example 228] | 6.83
14 | O=C(/C=C/c1ccc(Cl)c(Cl)c1)N1CCC(=O)N(CCCN2CC[C@@H](F)[C@H](O)C2)CC1 (racemic) [Example 230, (rac,trans)-1-[(E)-3-(3,4-Dichloro-phenyl)-acryloyl]-4-[3-(4-fluoro-3-hydroxy-piperidin-1-yl)-propyl]-[1,4]diazepan-5-one] | 6.67
15 | CC1(O)CCCN(CCCN2CCN(C(=O)/C=C/c3ccc(Cl)c(Cl)c3)CCC2=O)C1 (racemic) [Example 232] | 7.04
16 | O=C(/C=C/c1ccc(Cl)c(Cl)c1)N1CCC(=O)N(CCCN2CC[C@@H](O)[C@@H](F)C2)CC1 (racemic) [Example 233, (rac, cis)-1-[(E)-3-(3,4-Dichloro-phenyl)-acryloyl]-4-[3-(3-fluoro-4-hydroxy-piperidin-1-yl)-propyl]-[1,4]diazepan-5-one] | 6.44
17 | CC1CCCN(CCCN2CCN(C(=O)/C=C/c3ccc(Cl)c(Cl)c3)CCC2=O)C1 (racemic) [Example 235] | 6.95
18 | COCC1CCCN(CCCN2CCN(C(=O)/C=C/c3ccc(Cl)c(Cl)c3)CCC2=O)C1 (racemic) [Example 236] | 6.25
19 | CC1CCN(CCCN2CCN(C(=O)/C=C/c3ccc(Cl)c(Cl)c3)CCC2=O)CC1O (racemic) [Example 238] | 7.27
20 | CC1CN(CCCN2CCN(C(=O)/C=C/c3ccc(Cl)c(Cl)c3)CCC2=O)CCC1O (racemic) [Example 243] | 6.88
21 | CC(C)N1CCN(CCCN2CCN(C(=O)/C=C/c3ccc(Cl)c(Cl)c3)CCC2=O)CC1C (racemic) [Example 246, (rac)-1-[(E)-3-(3,4-Dichloro-phenyl)-acryloyl]-4-[3-(4-isopropyl-3-methyl-piperazin-1-yl)-propyl]-[1,4]diazepan-5-one] | 6.38

Row | Compound | pIC50
22 | CC1(CO)CCCN(CCCN2CCN(C(=O)/C=C/c3ccc(Cl)c(Cl)c3)CCC2=O)C1 (racemic) [Example 248] | 6.65
23 | COCC1(C)CCCN(CCCN2CCN(C(=O)/C=C/c3ccc(Cl)c(Cl)c3)CCC2=O)C1 (racemic) [Example 249] | 5.90
24 | CC1(CO)CCCCN1CCCN1CCN(C(=O)/C=C/c2ccc(Cl)c(Cl)c2)CCC1=O (racemic) [Example 250] | 6.09
25 | O=C(/C=C/c1ccc(Cl)c(Cl)c1)N1CCC(=O)N(CCCN2CCC3(CC3)C(O)C2)CC1 (racemic) [Example 251] | 8.10
26 | O=C(/C=C/c1ccc(Cl)c(Cl)c1)N1CCC(=O)N(CCCN2CCC(O)C3(CC3)C2)CC1 (racemic) [Example 252] | 6.92
27 | C[C@@H]1CN(CCCN2CCN(C(=O)/C=C/c3ccc(Cl)c(Cl)c3)CCC2=O)CC[C@@H]1O (racemic) [Example 253] | 6.88
28 | CC1(CO)CCCN1CCCN1CCN(C(=O)/C=C/c2ccc(Cl)c(Cl)c2)CCC1=O (racemic) [Example 255] | 6.25
29 | COC(=O)NC1CCCN(CCCN2CCN(C(=O)/C=C/c3ccc(Cl)c(Cl)c3)CCC2=O)C1 (racemic) [Example 256] | 5.97
30 | CC1(C)CN(CCCN2CCN(C(=O)/C=C/c3ccc(Cl)c(Cl)c3)CCC2=O)CCC1O (racemic) [Example 257] | 6.74
31 | COC[C@H]1CCN(CCCN2CCN(C(=O)/C=C/c3ccc(Cl)c(Cl)c3)CCC2=O)C[C@H]1O (racemic) [Example 267, (rac,cis)-1-[(E)-3-(3,4-Dichloro-phenyl)-acryloyl]-4-[3-(3-hydroxy-4-methoxymethyl-piperidin-1-yl)-propyl]-[1,4]diazepan-5-one] | 6.67
32 | O=C(/C=C/c1ccc(Cl)c(Cl)c1)N1CCC(=O)N(CCCN2CC[C@H](CO)[C@@H](O)C2)CC1 (racemic) [Example 268, (rac,trans)-1-[(E)-3-(3,4-Dichloro-phenyl)-acryloyl]-4-[3-(3-hydroxy-4-hydroxymethyl-piperidin-1-yl)-propyl]-[1,4]diazepan-5-one] | 6.67
33 | CO[C@@H]1CN(CCCN2CCN(C(=O)/C=C/c3ccc(Cl)c(Cl)c3)CCC2=O)CC[C@@H]1CO (racemic) [Example 269, (rac,cis)-1-[(E)-3-(3,4-Dichloro-phenyl)-acryloyl]-4-[3-(3-methoxy-4-hydroxymethyl-piperidin-1-yl)-propyl]-[1,4]diazepan-5-one] | 6.21
34 | C[C@]1(CO)CCN(CCCN2CCN(C(=O)/C=C/c3ccc(Cl)c(Cl)c3)CCC2=O)C[C@H]1O (racemic) [Example 270, (rac,cis)-1-[(E)-3-(3,4-Dichloro-phenyl)-acryloyl]-4-[3-(3-hydroxy-4-hydroxymethyl-4-methyl-piperidin-1-yl)-propyl]-[1,4]diazepan-5-one] | 8.00
35 | C[C@@]1(CO)CCN(CCCN2CCN(C(=O)/C=C/c3ccc(Cl)c(Cl)c3)CCC2=O)C[C@H]1O (racemic) [Example 271, (rac,trans)-1-[(E)-3-(3,4-Dichloro-phenyl)-acryloyl]-4-[3-(3-hydroxy-4-hydroxymethyl-4-methyl-piperidin-1-yl)-propyl]-[1,4]diazepan-5-one] | 7.26
36 | CC1CCC(O)CN1CCCN1CCN(C(=O)/C=C/c2ccc(Cl)c(Cl)c2)CCC1=O (racemic) [Example 272] | 6.72
37 | O=C(/C=C/c1ccc(Cl)c(Cl)c1)N1CCC(=O)N(CCCN2CC(O)CCC2CO)CC1 (racemic) [Example 273] | 6.50
38 | CC1(C)CCN(CCCN2CCN(C(=O)/C=C/c3ccc(Cl)c(Cl)c3)CCC2=O)CC1O (racemic) [Example 274] | 8.40
39 | CN(C)C1CCN(CCCN2CCN(C(=O)/C=C/c3ccc(Cl)c(Cl)c3)CCC2=O)C1 (racemic) [Example 277, (rac)-1-[(E)-3-(3,4-Dichloro-phenyl)-acryloyl]-4-[3-(3-dimethylamino-pyrollidin-1-yl)-propyl]-[1,4]diazepan-5-one] | 5.89
40 | CCN(CC)C1CCN(CCCN2CCN(C(=O)/C=C/c3ccc(Cl)c(Cl)c3)CCC2=O)C1 (racemic) [Example 278, (rac)-1-[(E)-3-(3,4-Dichloro-phenyl)-acryloyl]-4-[3-(3-diethylamino-pyrollidin-1-yl)-propyl]-[1,4]diazepan-5-one] | 6.27
41 | CC1CCN(CC(O)CN2CCN(C(=O)/C=C/c3ccc(Cl)c(Cl)c3)CCC2=O)CC1O (racemic) [Example 280] | 7.68
42 | O=C(/C=C/c1ccc(Cl)c(Cl)c1)N1CCC(=O)N(CC(O)CN2CCCC(O)C2)CC1 (racemic) [Example 281] | 6.89
